# Reference: PMC10179352, “Clostridia and Enteroviruses as Synergistic Triggers of Type 1 Diabetes Mellitus” (International Journal of Molecular Sciences, 2023)
# How the values were obtained:
# [1] = molecular target: INS (Homo sapiens, UniProt P01308); conditions: ultraviolet spectrometry; derived from previous study; read-out: Binding Constants, INS; cited from earlier work
# Source text: (§1) Table 1 Summary of ultraviolet spectrometry experiments concerning binding of T cell receptor sequences expanded in type 1 diabetic patients (TCR DIA) to a COX peptide (Cox Pep) that mimics the INS receptor (Ins Rec), two Clostridium peptides (Clost Pep) that mimic INS, two INS receptor peptides identified by their amino acid sequence numbers, and INS itself. Gluc = glucagon-like sequence; GR = gl | column: INS
# [2] = molecular target: Ins Rec 897–915; conditions: ultraviolet spectrometry; derived from previous study; read-out: Binding Constants, Ins Rec 897–915; cited from earlier work
# Source text: as §1, with “column: Ins Rec 897–915” for “column: INS”
# [3] = molecular target: Ins Rec 105–118; conditions: ultraviolet spectrometry; derived from previous study; read-out: Binding Constants, Ins Rec 105–118; cited from earlier work
# Source text: as §1, with “column: Ins Rec 105–118” for “column: INS”
# [4] = molecular target: Clost Pep #2; assay: Ultraviolet spectrometry peptide binding; set-up: species or system Clostridium; conditions: estimated from inflection points of the curves, read-out: Binding Constants, Clost Pep #2
# Source text: (§2) Because some COX antigens mimic INSR sequences and some Clostridia antigens mimic INS, we synthesized several microbial peptide sequences that mimicked these human proteins and used ultraviolet spectroscopy to determine whether they bound to each other, as would be the case if they were complementary antigens. Figure 12 provides the peptide sequences and their similarities to either INS or INSR. Clostridium similarities to the INS A chain were specifically chosen because the role of the A chain in the induction of T1DM is generally ignored in favor of the B chain.
# (§3) Previous investigators have sequenced the T cell receptor (TCR) sequences that are expanded in T1DM patients with particular specificities for INS or INSR [61, 62]. […] TCR 1, 2, and 4 were from one patient; TCR 8, 9, and 10 were from a second patient; and TCR K2.4, K2.12, and K2.16 were from a third. Ultraviolet light spectrometry was used to determine whether each TCR sequence recognized the COX and Clostridia peptides used in the previous set of experiments (Figure 12). The results are shown in Table 1, Figure 13, and Appendix F.
# [5] = molecular target: Clost Pep #3; assay: Ultraviolet spectrometry peptide binding; set-up: species or system Clostridium; conditions: estimated from inflection points of the curves, read-out: Binding Constants, Clost Pep #3
# Source text: as §2, §3
# [6] = molecular target: Cox Pep #1 (COX peptide that mimics the INS receptor); assay: Ultraviolet spectrometry peptide binding; conditions: estimated from inflection points of the curves, read-out: Binding Constants, Cox Pep #1
# Source text: as §2, §3
# INS, sequence (P01308 25-54): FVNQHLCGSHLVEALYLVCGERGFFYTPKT
# INS, sequence (P01308 90-110): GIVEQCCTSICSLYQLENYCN
Molecule,Kd [1],Kd [2],Kd [3],Kd [4],Kd [5],Kd [6]
"CC[C@H](C)[C@H](NC(=O)[C@@H](NC(=O)[C@H](C)NC(=O)[C@H](CC(C)C)NC(=O)[C@H](CO)NC(=O)[C@H](CO)NC(=O)[C@H](C)NC(=O)[C@@H](N)CS)C(C)C)C(=O)N[C@@H](CCCNC(=N)N)C(=O)N[C@H](C(=O)O)[C@@H](C)O (single isomer, unassigned) [TCR DIA 2, K2.16]",> 1000 µM,,,,,
CASSIYLCSVEATRAD [TCR DIA 1],80 µM,300 µM,125 µM,100 µM,100 µM,400 µM
"CC(C)C[C@H](NC(=O)[C@H](C)NC(=O)[C@H](CO)NC(=O)[C@@H](N)CC(=O)O)C(=O)N[C@@H](Cc1ccc(O)cc1)C(=O)N[C@@H](CC(C)C)C(=O)N[C@@H](CS)C(=O)N[C@@H](C)C(=O)N[C@@H](CO)C(=O)N[C@@H](CO)C(=O)N[C@@H](CC(C)C)C(=O)NCC(=O)O (single isomer, unassigned) [TCR DIA 4,8,9]",> 1000 µM,,,,,
